Experimental data reported in US20250145715A1, “B7-H3 TARGETING FUSION PROTEINS AND METHODS OF USE THEREOF” (GT Biopharma, Inc., priority 2021, published 2025).

Experiments:
Type in all cases: cell-based, human
T cells (CD56−CD3+) = assay: T cell proliferation in PBMCs, CellTrace Violet dilution; settings: 7 days, 5 nM equimolar
Procedure: FIGS. 2A-2H illustrates that cam1615B7-H3 TriKE induces potent, and specific, natural killer (NK) cell proliferation. Peripheral blood mononuclear cells (PBMCs) were CellTrace Violet labeled and incubated for seven days at 5 nM equimolar concentrations of rhIL-15 or cam1615B7-H3 TriKE. On day 7, the cells were harvested and stained for flow cytometric evaluation. […] FIG. 2B is a graph illustrating pooled data showing the overall proportion of NK cells that proliferated. FIG. 2C is a graph illustrating pooled data showing the proportion of NK cells that highly proliferated (measured as proliferation beyond three divisions). FIG. 2D is a graph illustrating pooled data showing NK cell counts in the cultures (N=9). FIG. 2E is a representative histogram showing T cell (CD56− CD3+) proliferation. FIG. 2F is a graph illustrating pooled data showing the overall proportion of T cells proliferated. FIG. 2G is a graph illustrating pooled data showing the proportion of T cells highly proliferated. FIG. 2H is a graph illustrating pooled data showing T cell counts in the cultures (N=9). * p<0.05, ** p<0.01, *** p<0.001.
The wild-type IL-15 moiety in the cam1615B7-H3 TriKE was designed to induce targeted delivery of a proliferative signal to NK cells. To test this, proliferation assays evaluating dilution of a CellTrace dye over a 7-day period were carried out on PBMCs treated with no treatment (NT), monomeric rhIL-15 (IL15), or the TriKE (cam1615B7-H3). At the end of the seven days, cells were harvested and proliferation was evaluated by gating on CD56+CD3− cells. […] Since IL-15 acts on both NK cells and T cells, specificity was evaluated next by gating on T cells (CD56-CD3+).
To measure the ability of the TriKE to specifically induce NK cell expansion via the IL-15 moiety, PBMCs from healthy donors were labeled with CellTrace Violet Proliferation Dye (Invitrogen, Carlsbad, CA, USA) according to kit specifications. After staining, cells were cultured with TriKEs at noted concentrations, or equimolar concentrations of controls, and incubated in a humidified atmosphere containing 5% CO2 at 37° C. for seven days. Cells were harvested, stained for viability with Live/Dead reagent (Invitrogen, Carlsbad, CA, USA) and surface stained for anti-CD56 PE/Cy7 (Biolegend, San Diego, CA, USA) and anti-CD3 PE-CF594 (BD Biosciences, Franklin Lakes, NJ, USA) to gate on the viable CD56+ CD3− NK cell population or the CD56-CD3+ T cell population. Data analysis was performed using FlowJo software (FlowJo LCC, version 7.6.5, Ashland, OR, USA).

[1] = tested on: OVCAR8 ovarian cancer cells; assay: NK cell CD107a / IFNγ flow cytometry against OVCAR8; settings: individual components with PBMCs and OVCAR8
Procedure: FIG. 29A is a graph illustrating pooled proportion of NK cells from healthy donors expressing CD107a+ (degranulation) against OVCAR8 and MA148 targets. FIG. 29B is a graph illustrating pooled proportion of NK cells from healthy donors expressing IFNγ cytokine production against OVCAR8 and MA148 targets.
Healthy donor or ovarian cancer PBMC cells were incubated with ovarian tumor targets at 2:1 E:T ratio for 4 hrs with 30 nM TriKE or control condition. FIG. 30A is a graph illustrating pooled proportion of NK cells from healthy donors expressing CD107a+ (degranulation) against OVCAR8 targets (N=8). FIG. 30B is a graph illustrating pooled proportion of NK cells from healthy donors expressing IFNγ cytokine production against OVCAR8 targets (N=8). FIG. 30C is a graph illustrating pooled proportion of NK cells from healthy donors expressing CD107a+ (degranulation) against OVCAR3 targets (N=4). FIG. 30D is a graph illustrating pooled proportion of NK cells from healthy donors expressing IFNγ cytokine production against OVCAR3 targets (N=4). FIG. 30E is a graph illustrating pooled proportion of NK cells from healthy donors expressing CD107a+ (degranulation) against OVCAR5 targets (N=7). FIG. 30F is a graph illustrating pooled proportion of NK cells from healthy donors expressing IFNγ cytokine production against OVCAR5 targets (N=7). […] FIG. 30I is a graph illustrating that tumor killing was evaluated using IncuCyte imaging assay. […] The percentage of Live (Nuclight Red+Caspase 3/7−) tumor cells was quantified over a 48-h period and normalized to tumor alone. Readings were obtained every 15 min (representative of four separate experiments). * p<0.05, ** p<0.01, *** p<0.001, and **** p<0.0001.
ADCC was measured in a flow cytometry assay by evaluating degranulation via CD107a (lysosomal-associated membrane protein LAMP-1) and intracellular IFNγ production. […] Samples were washed and evaluated in an LSRII flow cytometer (BD Biosciences, San Jose, CA, USA).
The ability of cam1615B7-H3 TriKE to mediate NK cell activity against ovarian cancer cells was evaluated. […]

MM1S cells = assay: IncuCyte Zoom NK cell killing of MM1S; settings: bortezomib 10 nM or lenalidomide 5 μM with B7-H3 TriKE and NK cells, 48 hours; not statistically significant
From the text: (§1) FIGS. 7A-7B illustrate the ability of peripheral blood NK cells with or without B7-H3-TriKE to kill myeloma cells in live imaging IncuCyte Zoom assays. FIG. 7A is a graph showing the effects with effector:target (E:T) ratios of 2:1 and 4:1 on MM1S cells. FIG. 7B is a graph showing the effects with effector:target (E:T) ratios of 2:1 and 4:1 on U266 cells.
as §1, with “8A-8D” for “7A-7B”, “8A is a graph showing the effects with effector:target (E:T) ratios of 2:1 and 4:1 on H929 cells. FIG. 8B” for “7A”, “8C is a graph showing the effects with effector:target (E:T) ratios of 2:1 and 4:1 on RPMI-8226 cells. FIG. 8D” for “7B”
(§2) FIGS. 9A-9D illustrate the efficacy of B7-H3-TriKE with the proteasome inhibitor bortezomib (10 nM) and the immunomodulatory drug lenalidomide (5 μM). FIG. 9A is a graph showing the effect of the combination therapy on H929 cells after 48 hours. FIG. 9B is a graph showing the effect of the combination therapy on RPMI-8226 cells after 48 hours. FIG. 9C is a graph showing the effect of the combination therapy on MM1S cells after 48 hours. FIG. 9D is a graph showing the effect of the combination therapy on U266 cells after 48 hours.
(§3) The ability of peripheral blood NK cells with or without B7-H3-TriKE to kill myeloma cells was compared in live imaging IncuCyte Zoom assays with escalating doses of TriKE. Maximal killing occurred with 3 nM concentration.
(§4) The efficacy of B7-H3-TriKE with the proteasome inhibitor bortezomib (10 nM) and the immunomodulatory drug lenalidomide (5 μM) was also tested. Cytotoxicity curves were compared by repeated measures ANOVA and performed in triplicate.

H929 cells = assay: IncuCyte Zoom NK cell killing of H929; settings: bortezomib 10 nM or lenalidomide 5 μM with B7-H3-TriKE and NK cells, 48 hours
From the text: as §1, with “8A-8D” for “7A-7B”, “8A is a graph showing the effects with effector:target (E:T) ratios of 2:1 and 4:1 on H929 cells. FIG. 8B” for “7A”, “8C is a graph showing the effects with effector:target (E:T) ratios of 2:1 and 4:1 on RPMI-8226 cells. FIG. 8D” for “7B”
as §2, §3, §4

RPMI-8226 cells = assay: IncuCyte Zoom NK cell killing of RPMI-8226; settings: bortezomib 10 nM or lenalidomide 5 μM with B7-H3-TriKE and NK cells, 48 hours
From the text: as §1, with “8A-8D” for “7A-7B”, “8A is a graph showing the effects with effector:target (E:T) ratios of 2:1 and 4:1 on H929 cells. FIG. 8B” for “7A”, “8C is a graph showing the effects with effector:target (E:T) ratios of 2:1 and 4:1 on RPMI-8226 cells. FIG. 8D” for “7B”
as §2, §3, §4

U266 cells = assay: IncuCyte Zoom NK cell killing of U266; settings: bortezomib 10 nM with B7-H3-TriKE and NK cells, 48 hours
From the text: as §1
as §1, with “8A-8D” for “7A-7B”, “8A is a graph showing the effects with effector:target (E:T) ratios of 2:1 and 4:1 on H929 cells. FIG. 8B” for “7A”, “8C is a graph showing the effects with effector:target (E:T) ratios of 2:1 and 4:1 on RPMI-8226 cells. FIG. 8D” for “7B”
as §2, with “FIG. 9D is a graph showing the effect of the combination therapy on U266 cells after 48 hours.” left out

Molecule | overall T cell proliferation (T cells (CD56−CD3+)) | NK cell activity against OVCAR8 by individual components [1] | killing of MM1S in combination therapy (MM1S cells) | killing of H929 in combination therapy (H929 cells) | killing of RPMI-8226 in combination therapy (RPMI-8226 cells) | killing of U266 in combination therapy (U266 cells)
rhIL-15: monomeric recombinant human IL-15 control [reference compound] | robust proliferation of T cells | do not enhance NK cell activity | – | – | – | –
Nc1cccc2c1CN(C1CCC(=O)NC1=O)C2=O (stereo not drawn) [lenalidomide] | – | – | trend toward improved killing | synergistic killing | synergistic killing | –
CC(C)C[C@H](NC(=O)[C@H](Cc1ccccc1)NC(=O)c1cnccn1)B(O)O [bortezomib, reference compound] | – | – | trend toward improved killing | did not further enhance killing | synergistic killing | enhanced killing
